Several values for one entry are separate records, joined by “and”; a condition that tells them apart may be missing. Identical values can stand only once. Like-named read-outs stand apart in the source and are kept apart here.
Experiments:
[1] = Pharmacokinetic studies in mice, oral administration; assay type: in vivo, Balb/c mice; details: for AUC / Cmax / Tmax / t1/2: plasma analyte = label, after oral 100 mg/kg compound 113
Protocol: Female Balb/c mice (6-8 weeks old) from Taconic (Germantown, N.Y.) were housed in a controlled environment (12-hours of light/12-hours of dark, 22±1° C., 60±10% relative humidity), which is fully accredited by the USDA. All rodents were housed in microisolator cages (Lab Products, Inc., NJ) containing autoclaved bedding. The mice were allowed free access to autoclaved pellet food and tap water throughout the study. All animal care procedures conformed to the Guide for the Care and Use of Laboratory Animals (National Research Council, National Academy Press, Washington D.C. 1996).
Sampling time points were 0, 2, 5, 10, 15, 30, 45, 60, 120, 240 and 360 minutes after the gavage.
(§6) All collected blood samples were heparinized and centrifuged at 7000×g for 5 minutes to separate the plasma fraction from the whole blood. The plasma samples were then processed immediately using the extraction procedure described above.
(§7) Pharmacokinetic modeling and parameter calculations were carried out using the WinNonlin Professional Version 3.0 (Pharsight, Inc., Mountain, Calif.) pharmacokinetics software (Chen et al., Pharm. Res., 16, 1003 (1999); Chen et al., Pharm. Res., 16, 117 (1999); Chen et al., J. Clin. Pharmacol., 39, 1248 (1999); Uckun et al., Clin. Cancer Res., 5, 2954 (1999); and Uckun et al., J. Pharmacol. Exp. Ther., 291, 1301 (1999)). An appropriate model was chosen on the basis of the lowest sum of weighted squared residuals, the lowest Schwartz Criterion (SC), the lowest Akaike's Information Criterion (AIC) value, the lowest standard errors of the fitted parameters, and the dispersion of the residuals. The elimination half-life was estimated by linear regression analysis of the terminal phase of the plasma concentration-time profile. The area under the concentration-time curve (AUC) was calculated according to the linear trapezoidal rule between the first sampling time (0 hours) and the last sampling time plus C/k, where C is the concentration of the last sampling and k is the elimination rate constant. The systemic clearance (CL) was determined by dividing the dose by the AUC. The metabolic clearance of the parent drug, the formation clearance of the metabolite, the clearance elimination of the metabolite, and the distribution clearance of the metabolite were estimated by simultaneous fitting of the concentration of parent drug and metabolites as a function of time curve to pharmacokinetic models (see FIGS. 7A & 8A) specified as a system of differential equations (Gabrielsson & Weiner, Phamacokinetic/Phamacodynamic Data Analysis: Concepts and Applications, Swedish Pharmaceutical Press (1997)).

[2] = Pharmacokinetic studies in mice, intravenous administration; assay type: in vivo, Balb/c mice; details: for AUC / CL / Cmax / Vss / t1/2 / Tmax: plasma analyte = label
Protocol: Female Balb/c mice (6-8 weeks old) from Taconic (Germantown, N.Y.) were housed in a controlled environment (12-hours of light/12-hours of dark, 22±1° C., 60±10% relative humidity), which is fully accredited by the USDA. All rodents were housed in microisolator cages (Lab Products, Inc., NJ) containing autoclaved bedding. The mice were allowed free access to autoclaved pellet food and tap water throughout the study.
Blood samples (˜500 μL) were obtained from the ocular venous plexus by retro-orbital venipuncture at 0, 2, 5, 10, 15, 30, 45, 60, 120, 240 and 360 minutes after intravenous injection.
as §6, §7

Stability in whole blood = assay type: in vitro ADME; details: spiked whole blood 37° C.; 250 μM compound 113, 100 μM Ala-d4T-MP (followed for 1 day)
Protocol: (§1) The whole blood samples were placed in a 37° C. water bath, while plasma samples were stored at −20° C. At a predetermined time, an aliquot (100 μl) of spiked whole blood or plasma was extracted by adding 400 μl of acetone to induce precipitation of proteins, as described above.

[3] = Stability in simulated intestinal fluid; assay type: in vitro ADME; details: 100 μM, 37° C.
Protocol: The spiked fluids were then placed in a 37° C. water bath. At a predetermined time, 100 μI aliquots of the spiked gastric or intestinal fluid were extracted by adding 400 μl of acetone as discussed above.

Stability in plasma = assay type: in vitro ADME; details: spiked plasma; 250 μM compound 113, 100 μM Ala-d4T-MP (followed for 1 day)
Protocol: Plasma samples (200 μL) were mixed 1:4 with acetone (800 μL) and vortexed for at least 30 seconds. Following centrifugation, the supernatant was transferred into a clean tube and was dried under nitrogen. A 50 μL solution of 50% methanol in 200 mM HCl was used to reconstitute the extraction residue, and 40 μL was injected into the HPLC.
as §1

HSV Type II strain G = experiment: HSV-2 plaque formation assay in VERO cells; assay type: cell-based, herpes simplex virus Type II; details: Human alphaherpesvirus 2, HSV-2, Strain G
From the text: (§2) Virus stocks. The HIV-1 strain used in this study was HTLV-IIIB (Uckun et al., 1998 Antimicro. Agents and Chemother., 42:383-388). The non-HIV viruses included in the present study were the gancyclovir-sensitive cytomegalovirus (CMV) strain AD169 (ATCC VR-538); acyclovir-sensitive herpes simplex virus (HSV) Type I strain HF (ATCC VR-260); acyclovir-sensitive HSV Type II strain G (ATCC VR-734); adenovirus strain Type 5, strain adenoid 75 (ATCC VR-5); enterovirus strain, ECHO 30, strain Bastianni (ATCC VR-322); and respiratory syncytial virus (RSV), strain Long (ATCC VR-26).
(§3) Plaque formation assays. Plaque assays were used to examine the activity of the compounds against non-HIV viruses. The skin fibroblast cell line SF (ATCC CRL-2097) was used as a target for AD169, Adenovirus Type 5. […] cell line (ATCC CCL-81) was used as a target for HSV HF and G. The HEP-2 cell line (ATCC CCL-23) was used as a target for the RSV strain Long. These cell lines were cultured at 1×10^5 cells/well in 24-well (all but ECHO 30-infected SF) or 6-well (ECHO 30-infected SF) tissue culture plates with 0.9% methylcellulose or 0.4% SeaPlaque agarose semisolid support. […] Percent inhibition of plaque formation was calculated by comparing the plaque numbers from the test substance-treated infected cells with the plaque numbers from untreated infected cells (i.e., virus controls). The IC50 values were determined using the Statview statistics program (SAS Institute, Inc., Cary, N.C.).
(§4) Statistical analysis. […] An IC50 value was calculated from each set of triplicate wells using nonlinear regression modeling of the exponential form of the linearized equation (Statview, SAS Institute, Inc., Cary, N.C.). […]
(§5) The skin fibroblast cell line SF (ATCC CRL-2097) was used as a target for AD169, Adenovirus Type 5, and ECHO 30; the VERO cell line (ATCC CCL-81) was used as a target for HF and G; and the HEP-2 cell line (ATCC CCL-23) was used as target for the RSV strain Long. Results are expressed as the average IC50 values in μM. […]

skin fibroblasts = experiment: Cytotoxicity in skin fibroblasts (plaque assay); assay type: cell-based; details: ADV plaque formation assay
Protocol: as §3, with “support. Minimum Essential Medium (MEM) with Earle's salts (Gibco), L-glutamine, non-essential amino acids, 2% heat-inactivated fetal bovine serum, 1% penicillin/streptomycin, and 0.05% gentamicin served as the culture medium. The incubation times were 3 days for HF, G, ECHO 30, and Long; and 7 days for AD169 and Adenovirus Type 5.” for “support.”

[4] = system: adenovirus strain Type 5, strain adenoid 75; experiment: Adenovirus plaque formation assay in skin fibroblast cell line SF; assay type: cell-based, human adenovirus
From the text: as §2
Plaque formation assays. Plaque assays were used to examine the activity of the compounds against non-HIV viruses. The skin fibroblast cell line SF (ATCC CRL-2097) was used as a target for AD169, Adenovirus Type 5. […] cell line (ATCC CCL-81) was used as a target for HSV HF and G. The HEP-2 cell line (ATCC CCL-23) was used as a target for the RSV strain Long. These cell lines were cultured at 1×10^5 cells/well in 24-well (all but ECHO 30-infected SF) or 6-well (ECHO 30-infected SF) tissue culture plates with 0.9% methylcellulose or 0.4% SeaPlaque agarose semisolid support. Minimum Essential Medium (MEM) with Earle's salts (Gibco), L-glutamine, non-essential amino acids, 2% heat-inactivated fetal bovine serum, 1% penicillin/streptomycin, and 0.05% gentamicin served as the culture medium. The incubation times were 3 days for HF, G, ECHO 30, and Long; and 7 days for AD169 and Adenovirus Type 5. Plaque counting was performed with a 20X dissecting microscope for AD169, Type 5, ECHO 30, and RSV Long, and with a light box for HF and G. The fixative agent was crystal violet for all viruses, except for the CMV strain AD169 for which methylene blue was used. Percent inhibition of plaque formation was calculated by comparing the plaque numbers from the test substance-treated infected cells with the plaque numbers from untreated infected cells (i.e., virus controls). The IC50 values were determined using the Statview statistics program (SAS Institute, Inc., Cary, N.C.).
Statistical analysis. Each drug was tested at 6-7 different concentrations ranging from 0.0001 μM to 100 μM. Each assay was set up in triplicate wells and repeated 1-3 times. An IC50 value was calculated from each set of triplicate wells using nonlinear regression modeling of the exponential form of the linearized equation (Statview, SAS Institute, Inc., Cary, N.C.). […] The IC50 values obtained were correlated to the log transformed hydrolysis rate constants by fitting a linear model (JMP Software, SAS Institute Inc., Cary, N.C.). P-values less than 0.05 were deemed significant.
The skin fibroblast cell line SF (ATCC CRL-2097) was used as a target for AD169, Adenovirus Type 5, and ECHO 30; the VERO cell line (ATCC CCL-81) was used as a target for HF and G; and the HEP-2 cell line (ATCC CCL-23) was used as target for the RSV strain Long. Results are expressed as the average IC50 values in μM. Stavudine (STV) was included as a control.

Solubility = assay type: physicochemical; details: read-out: Solubility
[5] = system: herpes simplex virus (HSV) Type I strain HF; experiment: HSV-1 plaque formation assay in VERO cells; assay type: cell-based; details: Human alphaherpesvirus 1, HSV-1, Strain HF
From the text: as §2, §3, §4, §5

HIV-1 strain HTLV-IIIB = experiment: In vitro anti-HIV-1 activity, p24 antigen assay in PBMNC; assay type: cell-based; details: Human immunodeficiency virus 1, HIV-1, HTLV-IIIB, day 7
From the text: as §2
In vitro assays of anti-HIV-1 activity. Normal human peripheral blood mononuclear cells (PBMNC) from HIV-negative donors were cultured 72 hours in RPMI 1640 supplemented with 20% (v/v) heat-inactivated fetal bovine serum (FBS), 3% interleukin-2, 2 mM L-glutamine, 25 mM HEPES, 2 g/L NaHCO3, 50 Tg/mL gentamicin, and 4 Tg/mL phytohemagglutinin prior to exposure to HIV-1 at a multiplicity of infection (MOI) of 0.1 during a 1 hour adsorption period at 37° C. in a humidified 5% CO2 atmosphere. Subsequently, cells were cultured in 96-well microtiter plates (100 TL, 2×10^6 cells/mL) in the presence of various concentrations of compounds 113 or 609. Aliquots of culture supernatants were removed from the wells on the seventh day after infection for p24 antigen assays, as previously described. […] Percent viral inhibition was calculated by comparing the p24 values from untreated infected cells (i.e., virus controls).
Statistical analysis. […] An IC50 value was calculated from each set of triplicate wells using nonlinear regression modeling of the exponential form of the linearized equation (Statview, SAS Institute, Inc., Cary, N.C.). Hydrolysis rates were determined by fitting single exponential decay equations to the disappearance of the compound in alkali conditions (all R^2 values greater than 0.85). […]

[6] = system: respiratory syncytial virus (RSV), strain Long; experiment: RSV plaque formation assay in HEP-2 cells; assay type: cell-based; details: human respiratory syncytial virus, HEp-2
From the text: as §2, §3, §4, §5

[7] = Octanol/water partition coefficient, shake flask method; assay type: physicochemical; details: 4 hours at room temperature, read-out: Oct/Water (log P)
Protocol: HPLC purification was achieved using a reverse-phase Lichrospher column (250×4 mm, Hewlett-Packard, RP-18, Cat. #79925) and an isocratic flow (1 ml/minute) consisting of water (70%) and acetonitrile (30%). Melting points were determined using a Melt John's apparatus and are uncorrected. Column chromatography was performed using silica gel obtained from Baker Company. The octanol/water partition coefficient was determined by the shake flask method. The phosphoramidate analogs were added to 2 ml of water and 2 ml of octanol in a glass vial. The mixture was shaken for 4 hours at room temperature. The two phases were carefully separated and filtered through a Millipore filter and analyzed by HPLC. The partition coefficient was calculated using the ratio of the area under the curve for octanol and water, respectively.

[8] = Hydrolysis rate in alkali conditions; assay type: physicochemical
Protocol: Statistical analysis. Each drug was tested at 6-7 different concentrations ranging from 0.0001 μM to 100 μM. Each assay was set up in triplicate wells and repeated 1-3 times. An IC50 value was calculated from each set of triplicate wells using nonlinear regression modeling of the exponential form of the linearized equation (Statview, SAS Institute, Inc., Cary, N.C.). Hydrolysis rates were determined by fitting single exponential decay equations to the disappearance of the compound in alkali conditions (all R^2 values greater than 0.85). The IC50 values obtained were correlated to the log transformed hydrolysis rate constants by fitting a linear model (JMP Software, SAS Institute Inc., Cary, N.C.). P-values less than 0.05 were deemed significant.

[9] = system: cytomegalovirus (CMV) strain AD169; experiment: CMV plaque formation assay in SF cells; assay type: cell-based; details: Human betaherpesvirus 5
From the text: as §2, §3, §4, §5

[10] = system: enterovirus strain, ECHO 30, strain Bastianni; experiment: Enterovirus plaque formation assay in SF cells; assay type: cell-based
From the text: as §2, §3, §4, §5

[11] = estimate from composite curve of pooled data
[12] = after i.v. Ala-d4T-MP, model fit, C.V. of modeling in parentheses
[13] = after i.v. compound 113, model fit, C.V. of modeling in parentheses
[14] = after i.v. 75 mg/kg Ala-d4T-MP, estimate from composite curve of pooled data
[15] = after i.v. 75 mg/kg Ala-d4T-MP, mean ± S.E.M
[16] = after i.v. 100 mg/kg compound 113, estimate from composite curve of pooled data
[17] = after i.v. 100 mg/kg compound 113, mean ± S.E.M

Cc1cn([C@H]2C=C[C@@H](COP(=O)(O)NC(C)C(=O)O)O2)c(=O)[nH]c1=O (stereo partly drawn) [Ala-d4T-MP, alaninyl-d4T-monophosphate]
estimated bioavailability ([1]; metabolite = label, after oral administration of compound 113): approximately 12%
AUC [1, 11]: 1350.5 µM·min
Cmax [1, 11]: 12.7 µM
Tmax [1, 11]: 10.3 min
t1/2 [1, 11]: 66.4 min
AUC ([1]; mean ± S.E.M): (1355.4 ± 88.2) μM · min
Cmax ([1]; mean ± S.E.M): 15.6 µM
Tmax ([1]; mean ± S.E.M): (9.3 ± 0.9) min
t1/2 ([1]; mean ± S.E.M): (56.1 ± 8.5) min
share of CLm1 in the total systemic clearance ([2]; after i.v. Ala-d4T-MP): 99%
CLm1 (metabolic clearance of Ala-d4T-MP / formation clearance of d4T) [2, 12]: 15.6 ml/min/kg and 15.6 (16.6%) ml/min/kg
CLpd (distribution of Ala-d4T-MP to extravascular compartment) [2, 12]: 4.7 ml/min/kg and 4.7 (44.7%) ml/min/kg
CLm3 (metabolic clearance of Ala-d4T-MP / formation clearance of d4T) [2, 13]: 36.1 mL/min/kg
CLm1d (distribution of Ala-d4T-MP to the extravascular compartment) [2, 13]: 47.1 ml/min/kg and 62.0 (69.8%) ml/min/kg
fraction of parent converted to the metabolite (fm) ([2]; metabolite = label, after i.v. compound 113): 23%
AUC [2, 14]: 11648.7 µM·min
CL [2, 14]: 15.8 mL/min/kg
Cmax [2, 14]: 1210 µM
Vss [2, 14]: 0.2755 L/kg
t1/2 [2, 14]: 28.5 min
AUC [2, 15]: (11761.5 ± 447.2) μM · min
CL [2, 15]: (15.7 ± 0.6) ml/min/kg
Cmax [2, 15]: 1660 µM
Vss [2, 15]: (412.6 ± 126.3) ml/kg
t1/2 [2, 15]: (91.5 ± 54.5) min
AUC [2, 16]: 2854.8 µM·min
Cmax [2, 16]: 67.4 µM
Tmax [2, 16]: 5.9 min
t1/2 [2, 16]: 129.2 min
AUC [2, 17]: (2795.9 ± 361.2) μM · min
Cmax [2, 17]: 69.3 µM
Tmax [2, 17]: (5.1 ± 0.7) min
t1/2 [2, 17]: (138.8 ± 40.2) min
stability in whole blood (in words) (Stability in whole blood): stable
stability in intestinal fluid (in words) [3]: stable
stability in plasma (in words) (Stability in plasma): stable

COC(=O)C(C)NP(=O)(OCC1C=CC(n2cc(C)c(=O)[nH]c2=O)O1)Oc1ccc(Cl)cc1 (stereo not drawn) [Compound 609, 5′-[4-Chlorophenylmethoxyalaninyl phosphate]-2′, 3′-didehydro-3′-deoxy thymidine]
IC50 (HSV Type II strain G): > 100000 nM
cytotoxicity (in words) (skin fibroblasts): without cytotoxicity
IC50 ([4]; Adenovirus Type 5, 7 days, ± s.e., read-out: IC50, ADV-induced plaque formation): 26.7 nM and 27 nM
IC50 ([4]; read-out: IC50, ADV-induced plaque formation, Adenovirus Type 5, 7 days, ± s.e.): 2.7 ± 3 nM
Solubility (Solubility): 1400 µg/mL
IC50 [5]: > 100000 nM
IC50 (HIV-1 strain HTLV-IIIB): 1 nM
IC50 [6]: > 100000 nM
logP at 4 h [7]: 0.64
Hydrolysis Rate [8]: 0.0216 min⁻¹
IC50 [9]: > 100000 nM
IC50 [10]: > 100000 nM

Reference: US20030236218A1, “Aryl phosphate derivatives of d4T with selective activity against adenovirus and HIV” (priority 2002, published 2003)
